Source: patent publication US20260216157A1, “TETRAHYDROTHIOPHENE DERIVATIVE AND USE THEREOF IN MEDICINE” (Haisco Pharmaceutical Group Co., Ltd., priority 2023, published 2026)

Tests used:
hNav1.8 = target: T1, hNav1.8 (Homo sapiens, UniProt Q9Y5Y9); assay: Nav1.8 manual patch clamp test; assay type: cell-based; details: CHO cells stably expressing human Nav1.8; whole-cell patch clamp, half-inactivated state; read-out: Inhibitory activity (IC50) against hNav1.8
T1 construct: expressed in transfected cells; host or cells: CHO
T1 sequence (Q9Y5Y9 whole entry): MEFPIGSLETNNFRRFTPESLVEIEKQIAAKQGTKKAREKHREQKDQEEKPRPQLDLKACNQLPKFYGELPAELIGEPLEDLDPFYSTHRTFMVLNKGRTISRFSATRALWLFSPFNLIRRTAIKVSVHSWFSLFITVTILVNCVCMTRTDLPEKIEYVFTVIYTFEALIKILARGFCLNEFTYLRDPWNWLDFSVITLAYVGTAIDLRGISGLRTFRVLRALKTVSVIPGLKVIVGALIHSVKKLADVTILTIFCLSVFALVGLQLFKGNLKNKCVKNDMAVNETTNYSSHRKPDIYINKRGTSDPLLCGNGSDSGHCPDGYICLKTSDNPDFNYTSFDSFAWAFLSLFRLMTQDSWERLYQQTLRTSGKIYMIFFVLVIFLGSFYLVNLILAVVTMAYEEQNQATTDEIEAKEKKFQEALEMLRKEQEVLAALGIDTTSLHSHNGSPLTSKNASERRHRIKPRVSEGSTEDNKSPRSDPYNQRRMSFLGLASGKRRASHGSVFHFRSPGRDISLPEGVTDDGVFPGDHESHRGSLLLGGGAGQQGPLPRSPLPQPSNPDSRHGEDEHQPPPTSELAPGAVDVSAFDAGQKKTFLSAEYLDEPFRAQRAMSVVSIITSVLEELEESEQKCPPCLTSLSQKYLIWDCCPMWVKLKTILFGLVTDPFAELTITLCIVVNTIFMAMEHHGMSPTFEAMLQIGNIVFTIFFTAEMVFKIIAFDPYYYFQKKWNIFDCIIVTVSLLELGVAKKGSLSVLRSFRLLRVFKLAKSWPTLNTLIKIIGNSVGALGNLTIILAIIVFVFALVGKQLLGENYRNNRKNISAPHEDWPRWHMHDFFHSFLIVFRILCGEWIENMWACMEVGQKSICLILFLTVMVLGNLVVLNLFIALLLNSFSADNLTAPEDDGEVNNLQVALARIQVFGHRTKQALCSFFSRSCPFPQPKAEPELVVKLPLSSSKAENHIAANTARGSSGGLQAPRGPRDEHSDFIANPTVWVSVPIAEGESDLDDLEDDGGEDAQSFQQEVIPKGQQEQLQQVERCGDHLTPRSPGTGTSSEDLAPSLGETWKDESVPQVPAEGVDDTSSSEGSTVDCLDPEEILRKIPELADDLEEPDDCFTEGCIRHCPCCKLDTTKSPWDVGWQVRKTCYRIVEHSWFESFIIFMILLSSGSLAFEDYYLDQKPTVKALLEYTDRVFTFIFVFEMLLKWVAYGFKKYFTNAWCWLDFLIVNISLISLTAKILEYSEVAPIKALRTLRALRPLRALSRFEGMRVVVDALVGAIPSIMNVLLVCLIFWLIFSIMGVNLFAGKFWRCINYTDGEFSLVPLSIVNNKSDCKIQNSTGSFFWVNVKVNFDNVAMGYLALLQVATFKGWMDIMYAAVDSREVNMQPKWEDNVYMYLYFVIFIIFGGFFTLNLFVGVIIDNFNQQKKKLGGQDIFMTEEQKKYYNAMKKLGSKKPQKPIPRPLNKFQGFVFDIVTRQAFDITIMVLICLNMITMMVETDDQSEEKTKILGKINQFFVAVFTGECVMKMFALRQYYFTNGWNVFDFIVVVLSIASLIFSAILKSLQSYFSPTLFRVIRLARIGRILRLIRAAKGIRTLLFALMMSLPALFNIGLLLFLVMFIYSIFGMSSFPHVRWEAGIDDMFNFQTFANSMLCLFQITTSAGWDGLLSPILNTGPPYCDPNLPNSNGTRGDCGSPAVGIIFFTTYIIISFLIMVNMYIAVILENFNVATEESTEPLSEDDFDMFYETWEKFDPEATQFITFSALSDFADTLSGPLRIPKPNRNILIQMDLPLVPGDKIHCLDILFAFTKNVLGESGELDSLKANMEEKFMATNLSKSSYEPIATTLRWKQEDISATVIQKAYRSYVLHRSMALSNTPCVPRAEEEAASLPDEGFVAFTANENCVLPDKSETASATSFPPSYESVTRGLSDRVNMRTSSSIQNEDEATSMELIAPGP
Procedure: Nav1.8 Manual Patch Clamp Test
CHO cell lines stably expressing human Nav1.8 were cultured in a Ham's F-12 medium containing 10% fetal bovine serum, 10 μg/mL Blasticidin, 200 μg/mL Hygromycin B and 100 μg/mL Zeocin. The cells were cultured at 37° C. with a carbon dioxide concentration of 5%. The old medium was removed, and the cells were rinsed once with PBS. Then, 1 mL of 0.25%-Trypsin-EDTA solution was added, and the cells were incubated at 37° C. for approximately 1.5 min. Once the cells detached from the bottom of the dish, complete medium pre-warmed to 37° C. was added. The cell suspension was gently triturated with a pipette to dissociate the clumped cells. The cell suspension was transferred to a sterile centrifuge tube and centrifuged at 1000 rpm for 5 min to collect the cells. The cells were seeded into 6 cm cell culture dishes at a density of 2.5×10^5 cells per cell culture dish (final volume: 5 mL) for expansion or maintenance culture. To maintain the electrophysiological activity of the cells, the cell density should not exceed 80%. Before patch clamp testing, the cells were dissociated with 0.25%-Trypsin-EDTA. 6.5×10^3 cells were plated onto coverslips and cultured in 24-well plates (final volume: […]) for 18 hours before detection.
The compound was dissolved in dimethyl sulfoxide (DMSO) and prepared into a 30 mM DMSO stock solution. The stock solution was diluted with the extracellular fluid (140 mM NaCl, 3.5 mM KCl, 1 mM MgCl2·6H2O, 2 mM CaCl2·2H2O, 10 mM D-Glucose, 10 mM HEPES and 1.25 mM NaH2PO4·2H2O; adjusted to pH 7.4 with NaOH) to the test concentration, and the final DMSO concentration of all test samples was 0.1%.
(3) Electrophysiological Test
First, the recording electrodes were pulled from capillary glass tubes by using a microelectrode puller. Then, the electrodes were filled with the intracellular fluid (50 mM CsCl, 10 mM NaCl, 10 mM HEPES, 60 mM CsF and 20 mM EGTA; adjusted to pH 7.2 with CsOH) and mounted onto the microelectrode holder. Under an inverted microscope, the microelectrode manipulator was used to immerse the electrodes into the extracellular fluid, and the pipette resistance (Rpip) was recorded. The electrodes were slowly brought into contact with the cell surface, and negative pressure suction was applied to form a […]. At this point, fast capacitance compensation was performed, and negative pressure was continuously applied to break the cell membrane, forming a whole-cell recording mode. Finally, slow capacitance compensation was performed, and experimental parameters such as series resistance (Rs) were recorded. No electric leakage compensation was applied. When the Nav1.8 current in whole-cell recording was stable, drug administration was initiated, with each drug concentration for approximately 5 min (or until the current was stable). The coverslips spread with the cells were placed in a recording chamber under the inverted microscope. The blank control extracellular fluid and the test compound working solution were perfused through the recording chamber via the gravity-driven perfusion method, thereby acting on the cells, and a peristaltic pump was used to facilitate liquid exchange. The current recorded from cells in compound-free extracellular fluid was used as the control group. All electrophysiological experiments were conducted at room temperature. The inhibition rate of compounds on Nav1.8 was determined by calculating the relative percentage of peak currents generated before and after the cells were treated with the compounds.
The voltage stimulation protocol for whole-cell patch clamp recording of Nav1.8 sodium currents was described as follows. When the whole-cell sealing was formed, the cells were clamped at a voltage of −120 mV. First, the voltage was stepped from −110 mV to −30 mV in 10 mV increments and maintained for 5 s, followed by a depolarizing pulse to 0 mV to obtain a half-inactivation voltage (Vhalf). […]

[1] = Pharmacokinetic test in mice; assay type: in vivo; details: C57, mouse, PO 30 mg/kg, plasma
Procedure: Biological Test Example 3: Pharmacokinetic Test in Mice
Experimental animals: C57 mice, 22-25 g, 6 mice/compound.
Experimental design: on the day of the experiment, C57 mice were randomly grouped according to their body weights. The animals were fasted with water available for 12-14 h one day before the administration, and were fed 4 h after the administration.
Before and after the administration, 0.06 mL of blood was taken from the orbit under isoflurane anesthesia, and placed in an EDTAK2 centrifuge tube. Centrifugation was performed at 5000 rpm at 4° C. for 10 min, and the plasma was collected. The blood collection time points for both the intravenous administration group and the intragastric administration group were: 0, 5 min, 15 min, 30 min, 1 h, 2 h, 4 h, 7 h, 24 h and 48 h. Before analysis and detection, all samples were stored at −80° C. The samples were quantitatively analyzed by LC-MS/MS.

[2] = system: Spinal nerve ligation (SNL)-induced mouse model of neuropathic pain; assay: Spinal nerve ligation (SNL)-induced mouse model of neuropathic pain; assay type: in vivo, C57BL/6J mice; details: SNL mice, mechanical pain threshold
Procedure: Biological Test Example 8: Spinal Nerve Ligation (SNL)-Induced Mouse Model of Neuropathic Pain
Male C57BL/6J mice purchased from Zhejiang Vital River Laboratory Animal Technology Co., Ltd. were adaptively raised for one week and then the models were established. […]
The mice that were unsuccessful in modeling were eliminated the next day after modeling (marker for successful modeling: mice with their hind paws curled up). […] After grouping, the test compounds (3 and 30 mg/kg) or vehicles (0.5% methylcellulose) were administered intragastrically, and the mechanical pain threshold (MPT) of the mice was measured at different time points after the administration. […]

CYP2C19 = target: T2, CYP2C19 (Homo sapiens, UniProt P33261); assay: CYP450 enzyme inhibition test (human liver microsomes); assay type: in vitro ADME; details: read-out: IC50 against CYP2C19
T2 construct: co-incubated with human liver microsomes and test compounds; from tissue; host or cells: human liver microsomes
T2 sequence (P33261 whole entry): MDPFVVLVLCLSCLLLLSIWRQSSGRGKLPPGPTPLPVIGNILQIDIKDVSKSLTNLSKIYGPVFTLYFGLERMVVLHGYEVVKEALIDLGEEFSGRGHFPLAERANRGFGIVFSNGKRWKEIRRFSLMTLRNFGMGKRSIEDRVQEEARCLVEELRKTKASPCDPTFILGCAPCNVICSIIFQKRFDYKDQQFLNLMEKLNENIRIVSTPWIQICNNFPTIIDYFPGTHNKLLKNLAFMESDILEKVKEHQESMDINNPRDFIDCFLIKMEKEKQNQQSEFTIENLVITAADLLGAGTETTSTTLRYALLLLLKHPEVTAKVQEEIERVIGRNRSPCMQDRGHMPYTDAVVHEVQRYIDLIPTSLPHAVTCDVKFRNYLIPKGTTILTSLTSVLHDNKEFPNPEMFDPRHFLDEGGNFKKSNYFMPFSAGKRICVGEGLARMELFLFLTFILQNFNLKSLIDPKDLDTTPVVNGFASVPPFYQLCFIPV
Procedure: (§1) Biological Test Example 6: CYP450 Enzyme Inhibition Test The purpose of this study was to evaluate the effect of test compounds on the activity of five isoenzymes (CYP1A2, CYP2C9, CYP2C19, CYP2D6, and CYP3A4) of human liver microsomal cytochrome P450 (CYP) by using an in vitro testing system. The specific probe substrates of CYP450 isoenzymes were co-incubated with human liver microsomes and test compounds at different concentrations, and the reaction was initiated by adding reduced nicotinamide adenine dinucleotide phosphate (NADPH). After the completion of the reaction, the samples were treated and subjected to the liquid chromatography-tandem mass spectrometry (LC-MS/MS) to quantitatively detect metabolites produced by the specific substrates. The changes in CYP enzyme activity were determined, and IC50 values were calculated to evaluate the inhibitory potential of the test compounds on each CYP enzyme subtype.

CYP1A2 = target: T3, CYP1A2 (Homo sapiens, UniProt P05177); assay: as above; assay type: in vitro ADME; details: read-out: IC50 against CYP1A2
T3 construct: co-incubated with human liver microsomes and test compounds; from tissue; host or cells: human liver microsomes
T3 sequence (P05177 1-516): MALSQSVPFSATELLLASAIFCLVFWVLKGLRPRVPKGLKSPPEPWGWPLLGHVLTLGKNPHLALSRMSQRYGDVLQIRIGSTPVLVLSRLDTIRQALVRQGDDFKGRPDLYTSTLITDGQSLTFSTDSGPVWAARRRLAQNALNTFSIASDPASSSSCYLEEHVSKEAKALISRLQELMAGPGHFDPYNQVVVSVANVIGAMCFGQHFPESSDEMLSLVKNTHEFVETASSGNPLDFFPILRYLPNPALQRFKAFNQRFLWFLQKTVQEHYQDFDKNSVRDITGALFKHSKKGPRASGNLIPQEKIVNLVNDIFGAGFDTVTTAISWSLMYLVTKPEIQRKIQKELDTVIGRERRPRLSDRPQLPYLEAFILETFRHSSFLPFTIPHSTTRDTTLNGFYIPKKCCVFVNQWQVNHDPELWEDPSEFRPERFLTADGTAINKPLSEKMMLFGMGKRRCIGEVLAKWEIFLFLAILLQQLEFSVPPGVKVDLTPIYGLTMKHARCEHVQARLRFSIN
Procedure: as §1

CYP2C9 = target: T4, CYP2C9 (Homo sapiens, UniProt P11712); assay: as above; assay type: in vitro ADME; details: read-out: IC50 against CYP2C9
T4 construct: co-incubated with human liver microsomes and test compounds; from tissue; host or cells: human liver microsomes
T4 sequence (P11712 whole entry): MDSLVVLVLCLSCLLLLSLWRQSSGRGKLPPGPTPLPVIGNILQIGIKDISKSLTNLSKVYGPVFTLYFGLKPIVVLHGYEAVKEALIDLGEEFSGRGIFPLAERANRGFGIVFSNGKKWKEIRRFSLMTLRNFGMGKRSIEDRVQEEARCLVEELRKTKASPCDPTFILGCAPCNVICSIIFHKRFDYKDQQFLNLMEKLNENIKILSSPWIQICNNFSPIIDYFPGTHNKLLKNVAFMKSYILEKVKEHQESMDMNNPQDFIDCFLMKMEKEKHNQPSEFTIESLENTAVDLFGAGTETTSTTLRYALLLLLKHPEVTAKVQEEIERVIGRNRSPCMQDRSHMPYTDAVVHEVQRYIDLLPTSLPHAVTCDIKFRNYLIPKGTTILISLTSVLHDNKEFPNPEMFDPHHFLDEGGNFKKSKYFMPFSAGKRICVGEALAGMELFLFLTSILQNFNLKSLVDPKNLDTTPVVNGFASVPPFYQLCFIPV
Procedure: as §1

CYP2D6 = target: T5, CYP2D6 (Homo sapiens, UniProt P10635); assay: as above; assay type: in vitro ADME; details: read-out: IC50 against CYP2D6
T5 construct: co-incubated with human liver microsomes and test compounds; from tissue; host or cells: human liver microsomes
T5 sequence (P10635 whole entry): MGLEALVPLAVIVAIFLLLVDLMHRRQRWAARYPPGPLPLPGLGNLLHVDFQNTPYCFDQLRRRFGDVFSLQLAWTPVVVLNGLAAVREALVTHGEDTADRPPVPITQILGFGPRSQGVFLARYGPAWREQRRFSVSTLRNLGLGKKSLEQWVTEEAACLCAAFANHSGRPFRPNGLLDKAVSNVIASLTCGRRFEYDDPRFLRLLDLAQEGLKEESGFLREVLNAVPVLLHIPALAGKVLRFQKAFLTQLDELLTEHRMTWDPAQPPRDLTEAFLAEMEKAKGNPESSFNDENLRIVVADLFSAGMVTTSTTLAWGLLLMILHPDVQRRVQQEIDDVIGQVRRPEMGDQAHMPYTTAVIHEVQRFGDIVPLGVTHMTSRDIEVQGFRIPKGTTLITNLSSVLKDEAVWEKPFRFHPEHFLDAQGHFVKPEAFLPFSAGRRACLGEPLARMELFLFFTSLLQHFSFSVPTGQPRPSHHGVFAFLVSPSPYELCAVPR
Procedure: as §1

CYP3A4 = target: T6, CYP3A4 (Homo sapiens, UniProt P08684); assay: as above; assay type: in vitro ADME; details: read-out: IC50 against CYP3A4
T6 construct: co-incubated with human liver microsomes and test compounds; from tissue; host or cells: human liver microsomes
T6 sequence (P08684 whole entry): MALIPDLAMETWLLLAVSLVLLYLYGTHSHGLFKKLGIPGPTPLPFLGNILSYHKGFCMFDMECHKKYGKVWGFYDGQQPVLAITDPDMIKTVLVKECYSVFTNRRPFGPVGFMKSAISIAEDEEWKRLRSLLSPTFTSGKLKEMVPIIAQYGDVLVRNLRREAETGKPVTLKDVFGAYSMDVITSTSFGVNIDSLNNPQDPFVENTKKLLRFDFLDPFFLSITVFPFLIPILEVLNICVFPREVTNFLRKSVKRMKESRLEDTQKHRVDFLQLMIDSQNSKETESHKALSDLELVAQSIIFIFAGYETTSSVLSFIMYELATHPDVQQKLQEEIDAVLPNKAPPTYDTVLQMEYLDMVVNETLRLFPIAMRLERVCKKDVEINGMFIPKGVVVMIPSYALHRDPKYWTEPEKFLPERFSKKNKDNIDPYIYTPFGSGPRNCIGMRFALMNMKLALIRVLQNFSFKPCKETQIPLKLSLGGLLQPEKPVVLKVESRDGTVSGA
Procedure: as §1

SMILES | IC50 (hNav1.8) | AUC(0-t) [1] | analgesic efficacy (area under the time-MPT curve) ([2]; 3 mg/kg intragastric) | analgesic efficacy (area under the time-MPT curve) ([2]; 30 mg/kg intragastric) | IC50 (CYP2C19) | IC50 (CYP1A2) | IC50 (CYP2C9) | IC50 (CYP2D6) | IC50 (CYP3A4)
COc1c(C2CC(C)(C(F)(F)F)SC2C(=O)Nc2ccnc(C(N)=O)c2)ccc(F)c1F (single isomer, unassigned) [Compound 31-1P1] | < 0.0001 µM | 61600 ± 9480 ng·h/mL | – | – | – | – | – | – | –
COc1c([C@H]2[C@H](C(=O)Nc3ccc(F)c(C(N)=O)c3)S[C@@](C)(C(F)(F)F)[C@H]2C)ccc(F)c1F [Compound 6-2a] | < 0.0001 µM | – | significant analgesic efficacy | significant analgesic efficacy | – | – | – | – | –
COc1c([C@H]2[C@H](C(=O)Nc3ccnc(P(C)(C)=O)c3)S[C@@](C)(C(F)(F)F)[C@H]2C)ccc(F)c1F [Compound 58] | – | 65100 ± 9200 ng·h/mL | – | – | > 30 µM | > 30 µM | > 30 µM | > 30 µM | > 30 µM
